Broadly, the melting point is the temperature, or range, at which the solid turns liquid.

Results on 27 compounds are retold here after patent US8962674B2 (Tokyo Institute of Technology, priority 2006, dated 2015).

`COc1cc(/C=C/C(=O)CC(=O)/C=C/c2ccccc2O)ccc1O` [CU082, (1E,6E)-1-(4-hydroxy-3-methoxyphenyl)-7-(2-hydroxyphenyl)hepta-1,6-diene-3,5-dione] came in with a melting point of 77 to 83 °C.

Take `Cn1c(/C=C/C(=O)CC(=O)/C=C/c2ccc(O)cc2)cc2ccccc21` [CU126, (1E,6E)-1-(4-hydroxyphenyl)-7-(1-methyl-1H-indol-2-yl)hepta-1,6-diene-3,5-dione]: the melting point fell in the range of 208 to 213 °C.

With `COC(=O)c1ccccc1/C=C/C(=O)CC(=O)/C=C/c1ccc(O)cc1` [CU478, (1E,6E)-1-(4-hydroxyphenyl)-7-[2-(methoxycarbonyl)phenyl]hepta-1,6-diene-3,5-dione], the melting point is 145 to 150 °C.

`CN(C)c1cc(-c2ccccc2)ccc1/C=C/C(=O)CC(=O)/C=C/c1ccc(O)cc1` [CU536, (1E,6E)-1-(3-dimethylaminobiphenyl-4-yl)-7-(4-hydroxyphenyl)hepta-1,6-diene-3,5-dione]: the melting point was 83 to 88 °C.

Regarding `COCOc1ccc(OC)cc1/C=C/C(=O)CC(=O)/C=C/c1cc(OC)ccc1OCOC` [CU447, (1E,6E)-1,7-bis[5-methoxy-2-(methoxymethoxy)phenyl]hepta-1,6-diene-3,5-dione], the melting point lay within 140 to 143 °C.

Take `COc1ccc(/C=C/C(=O)CC(=O)/C=C/c2cc(Cl)ccc2Cl)cc1O` [CU185, (1E,6E)-1-(2,5-dichlorophenyl)-7-(3-hydroxy-4-methoxyphenyl)hepta-1,6-diene-3,5-dione]: the melting point was 140 to 146 °C.

`COc1ccc(/C=C/C(=O)CC(=O)/C=C/c2ccccc2O)cc1O` [CU084, (1E,6E)-1-(2-hydroxyphenyl)-7-(3-hydroxy-4-methoxyphenyl)hepta-1,6-diene-3,5-dione] returned a melting point of 90 to 96 °C.

`O=C(/C=C/c1ccc(O)cc1)CC(=O)/C=C/c1cc(O)ccc1-c1ccccc1` [CU526, (1E,6E)-1-(4-hydroxybiphenyl-2-yl)-7-(4-hydroxyphenyl)hepta-1,6-diene-3,5-dione] came in with a melting point of 179 to 186 °C.

In turn, `CN(C)S(=O)(=O)c1ccccc1/C=C/C(=O)CC(=O)/C=C/c1ccc(O)cc1` [CU480, (1E,6E)-1-[2-(dimethylaminosulfonyl)phenyl]-7-(4-hydroxyphenyl)hepta-1,6-diene-3,5-dione] registered a melting point of 86 to 90 °C.

Consider `COc1ccc(/C=C/C(=O)CC(=O)/C=C/c2ccc(OCCCN(C)C)cc2)cc1O` [CU241, (1E,6E)-1-[4-(3-dimethylaminopropoxy)phenyl]-7-(3-hydroxy-4-methoxyphenyl)hepta-1,6-diene-3,5-dione], for which the melting point lay in the range of 183 to 186 °C.

`CCN(CC)c1ccc(/C=C/C(=O)CC(=O)/C=C/c2ccc(O)c(OC)c2)c(OC(C)C)c1` [CU439, (1E,6E)-1-(4-diethylamino-2-isopropyloxyphenyl)-7-(4-hydroxy-3-methoxyphenyl)hepta-1,6-diene-3,5-dione] registered a melting point of 156 to 160 °C.

`O=C(/C=C/c1ccc(O)cc1)CC(=O)/C=C/c1ccc(Br)cc1F` [CU471, (1E,6E)-1-(4-bromo-2-fluorophenyl)-7-(4-hydroxyphenyl)hepta-1,6-diene-3,5-dione] yielded a melting point of 223 to 232 °C.

As to `CCN(CC)c1ccc(/C=C/C(=O)CC(=O)/C=C/c2ccc(OC)c(O)c2)c(OC(C)C)c1` [CU440, (1E,6E)-1-(4-diethylamino-2-isopropyloxyphenyl)-7-(3-hydroxy-4-methoxyphenyl)hepta-1,6-diene-3,5-dione], the melting point fell in the range of 117 to 120 °C.

`O=C(/C=C/c1ccc(O)cc1)CC(=O)/C=C/c1cc(O)ccc1O` [CU090, (1E,6E)-1-(2,5-dihydroxyphenyl)-7-(4-hydroxyphenyl)hepta-1,6-diene-3,5-dione] registered a melting point of 133 to 140 °C.

Turning to `COc1cc(/C=C/C(=O)CC(=O)/C=C/c2ccc(OCCCN(C)C)cc2)ccc1O` [CU018, (1E,6E)-1-[4-(3-dimethylaminopropoxy)phenyl]-7-(4-hydroxy-3-methoxyphenyl)hepta-1,6-diene-3,5-dione], the melting point was in the range of 155 to 159 °C.

Regarding `CN(C)c1ccc(/C=C/C(=O)CC(=O)/C=C/c2ccc(O)cc2)cc1` [CU207, (1E,6E)-1-(4-dimethylaminophenyl)-7-(4-hydroxyphenyl)hepta-1,6-diene-3,5-dione], the melting point was 205 to 209 °C.

`COc1ccc(/C=C/C(=O)CC(=O)/C=C/c2ccc3ccccc3c2)cc1O` [CU165, (1E,6E)-1-(3-hydroxy-4-methoxyphenyl)-7-(naphthalen-2-yl)hepta-1,6-diene-3,5-dione]: the melting point fell in the range of 193 to 194 °C.

As to `COc1ccc(O)cc1/C=C/C(=O)CC(=O)/C=C/c1cc(O)ccc1OC` [CU380, (1E,6E)-1,7-bis(5-hydroxy-2-methoxyphenyl)hepta-1,6-diene-3,5-dione], the melting point was in the range of 188 to 196 °C.

In turn, `COc1ccc(/C=C/C(=O)CC(=O)/C=C/c2ccc3cc[nH]c3c2)cc1O` [CU191, (1E,6E)-1-(3-hydroxy-4-methoxyphenyl)-7-(1H-indol-6-yl)hepta-1,6-diene-3,5-dione] had a melting point of 197 to 202 °C.

The compound `COc1ccc(/C=C/C(=O)CC(=O)/C=C/c2ccc(O)cc2)cc1O` [CU027, (1E,6E)-1-(3-hydroxy-4-methoxyphenyl)-7-(4-hydroxyphenyl)hepta-1,6-diene-3,5-dione] came in with a melting point of 207 to 210 °C.

`COc1ccc(/C=C/C(=O)CC(=O)/C=C/c2c[nH]c3cccc([N+](=O)[O-])c23)cc1O` [CU463, (1E,6E)-1-(3-hydroxy-4-methoxyphenyl)-7-(4-nitro-1H-indol-3-yl)hepta-1,6-diene-3,5-dione] had a melting point of 226 to 233 °C.

Compound `COc1ccc(/C=C/C(=O)CC(=O)/C=C/c2cc(O)ccc2OC)cc1O` [CU179, (1E,6E)-1-(3-hydroxy-4-methoxyphenyl)-7-(5-hydroxy-2-methoxyphenyl)hepta-1,6-diene-3,5-dione] registered a melting point of 116 to 120 °C.

`O=C(/C=C/c1ccc(O)cc1)CC(=O)/C=C/c1cc2ccccc2o1` [CU321, (1E,6E)-1-(benzofuran-2-yl)-7-(4-hydroxyphenyl)hepta-1,6-diene-3,5-dione] gave a melting point of 173 to 178 °C.

`CCN(CC)c1ccc(/C=C/C(=O)CC(=O)/C=C/c2ccc(N(CC)CC)cc2OC(=O)c2ccccc2)c(OC(=O)c2ccccc2)c1` [CU427, (1E,6E)-1,7-bis(2-benzoyloxy-4-diethylaminophenyl)hepta-1,6-diene-3,5-dione]: the melting point was in the range of 192 to 196 °C.

`CSc1ccccc1/C=C/C(=O)CC(=O)/C=C/c1ccc(O)cc1` [CU484, (1E,6E)-1-(4-hydroxyphenyl)-7-[2-(methylthio)phenyl]hepta-1,6-diene-3,5-dione] gave a melting point of 157 to 160 °C.

The compound `N[C@H](Cc1ccccc1)C(=O)Nc1ccc(/C=C/C(=O)CC(=O)/C=C/c2ccc(O)cc2)cc1` [CU423, (1E,6E)-1-[4-((R)-2-amino-3-phenylpropionylamino)phenyl]-7-(4-hydroxyphenyl)hepta-1,6-diene-3,5-dione] came in with a melting point of 161 to 167 °C.

On to `COc1cc(/C=C/C(=O)CC(=O)/C=C/c2ccc(N(C)C)cc2OC)ccc1O` [CU154, (1E,6E)-1-(4-dimethylamino-2-methoxyphenyl)-7-(4-hydroxy-3-methoxyphenyl)hepta-1,6-diene-3,5-dione], for which the melting point lay in the range of 117 to 119 °C.
